Test results as given in ChEMBL document CHEMBL1201862, “PubChem BioAssay data set” (2004).
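Five concentrations, 48 hours, 96-well plates. GI50 is the concentration that inhibits growth by half.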 Activity calls are given as the source filed them. No stated cut-off is given here; in the data, active = GI50 up to about 1.1 µM and inactive = higher.

Key:
Assay in all cases: inhibition of tumour cell growth, NCI panel, 48 h
A549 = tested on: A549
CCRF-CEM = tested on: CCRF-CEM
HCT-15 = tested on: HCT-15
SNB-19 = tested on: SNB-19
SR = tested on: SR
UACC-62 = tested on: UACC-62
SF-539 = tested on: SF-539
IGROV-1 = tested on: IGROV-1
T47D = tested on: T47D
LOX IMVI = tested on: LOX IMVI
NCI-H522 = tested on: NCI-H522
KM12 = tested on: KM12
BT-549 = tested on: BT-549
786-0 = tested on: 786-0
EKVX = tested on: EKVX
Malme-3M = tested on: Malme-3M
NCI-H460 = tested on: NCI-H460
SK-MEL-28 = tested on: SK-MEL-28
UO-31 = tested on: UO-31
A498 = tested on: A498
NCI/ADR-RES = tested on: NCI/ADR-RES
COLO 205 = tested on: COLO 205
SNB-75 = tested on: SNB-75
MOLT-4 = tested on: MOLT-4
OVCAR-5 = tested on: OVCAR-5
HCC 2998 = tested on: HCC 2998
CAKI-1 = tested on: CAKI-1
RPMI-8226 = tested on: RPMI-8226
K562 = tested on: K562
UACC-257 = tested on: UACC-257
Hs-578T = tested on: Hs-578T
MDA-N = tested on: MDA-N
MCF7 = tested on: MCF7
SK-MEL-2 = tested on: SK-MEL-2
DU-145 = tested on: DU-145
NCI-H226 = tested on: NCI-H226
SW-620 = tested on: SW-620
ACHN = tested on: ACHN
HOP-62 = tested on: HOP-62
TK-10 = tested on: TK-10
NCI-H23 = tested on: NCI-H23
SN12C = tested on: SN12C
M14 = tested on: M14
U-251 = tested on: U-251
SK-OV-3 = tested on: SK-OV-3
HL-60 = tested on: HL-60
HCT-116 = tested on: HCT-116
SF-295 = tested on: SF-295
OVCAR-8 = tested on: OVCAR-8
SF-268 = tested on: SF-268
HT-29 = tested on: HT-29
OVCAR-4 = tested on: OVCAR-4
MDA-MB-231 = tested on: MDA-MB-231
RXF 393 = tested on: RXF 393
PC-3 = tested on: PC-3
SK-MEL-5 = tested on: SK-MEL-5
OVCAR-3 = tested on: OVCAR-3
MDA-MB-435 = tested on: MDA-MB-435

In the case of `COc1ccc2c(c1)c1nn(CCN(C)C)c3ccc4c(=O)n(CCN(C)C)c(=O)n2c4c13`, the GI50 (A549) is reported as < 0.01 µM (active), the GI50 (CCRF-CEM) is reported as < 0.01 µM (active) and the GI50 (HCT-15) is reported as < 0.01 µM. For the same molecule, the GI50 (SNB-19) was 0.0224 µM (active), the GI50 (SR) was < 0.01 µM (active) and the GI50 (UACC-62) was 0.116 µM (active). The GI50 (SF-539) was 0.169 µM (active), the GI50 (IGROV-1) was < 0.01 µM (active) and the GI50 (T47D) was 0.144 µM (active). The GI50 (LOX IMVI) was 0.0171 µM (active), the GI50 (NCI-H522) was < 0.01 µM (active) and the GI50 (KM12) was < 0.0142 µM (active). The GI50 (BT-549) was 0.946 µM (active), the GI50 (786-0) was < 0.01 µM (active) and the GI50 (EKVX) was 0.0746 µM (active). For the same molecule, the GI50 (Malme-3M) was 0.0904 µM (active), the GI50 (NCI-H460) was < 0.01 µM (active) and the GI50 (SK-MEL-28) was 0.22 µM (active). For the same molecule, the GI50 (UO-31) was 0.0255 µM (active), the GI50 (A498) was 0.114 µM (active) and the GI50 (NCI/ADR-RES) was 0.0148 µM (active). The GI50 (COLO 205) was < 0.0143 µM (active), the GI50 (SNB-75) was < 0.01 µM (active) and the GI50 (MOLT-4) was < 0.01 µM (active). The GI50 (OVCAR-5) was < 0.0223 µM (active), the GI50 (HCC 2998) was < 0.01 µM (active) and the GI50 (CAKI-1) was 0.0682 µM (active). For the same molecule, the GI50 (RPMI-8226) was < 0.01 µM (active), the GI50 (K562) was < 0.019 µM (active) and the GI50 (UACC-257) was 0.208 µM (active). For the same molecule, the GI50 (Hs-578T) was 0.0463 µM (active), the GI50 (MDA-N) was < 0.0325 µM (active) and the GI50 (MCF7) was < 0.0158 µM (active). The GI50 (SK-MEL-2) was 0.0323 µM (active), the GI50 (DU-145) was 0.0135 µM (active) and the GI50 (NCI-H226) was 0.125 µM (active). For the same molecule, the GI50 (SW-620) was < 0.01 µM (active), the GI50 (ACHN) was < 0.01 µM (active) and the GI50 (HOP-62) was < 0.01 µM (active). The GI50 (TK-10) was 0.0649 µM (active), the GI50 (NCI-H23) was < 0.0241 µM (active) and the GI50 (SN12C) was < 0.0234 µM (active). For the same molecule, the GI50 (M14) was 0.105 µM (active), the GI50 (U-251) was < 0.01 µM (active) and the GI50 (SK-OV-3) was < 0.0157 µM (active). For the same molecule, the GI50 (HL-60) was 0.042 µM (active), the GI50 (HCT-116) was < 0.01 µM (active) and the GI50 (SF-295) was < 0.01 µM (active). For the same molecule, the GI50 (OVCAR-8) was < 0.01 µM (active), the GI50 (SF-268) was < 0.01 µM (active) and the GI50 (HT-29) was < 0.01 µM (active). The GI50 (OVCAR-4) was < 0.01 µM (active), the GI50 (MDA-MB-231) was 0.0211 µM (active) and the GI50 (RXF 393) was 0.133 µM (active). The GI50 (PC-3) was 0.0103 µM (active), the GI50 (SK-MEL-5) was 0.198 µM (active) and the GI50 (OVCAR-3) was 0.018 µM (active). The GI50 (MDA-MB-435) was < 0.019 µM (active).

`COc1ccc(N2C(=O)C3c4[nH]c5cc(Cl)ccc5c4C4CCC(C(C)(C)C)CC4C3C2=O)cc1` (stereo unspecified) was tested, and the GI50 (A549) was 60.7 µM (inactive), the GI50 (CCRF-CEM) was 37.9 µM (inactive) and the GI50 (HCT-15) was 87.5 µM. For the same molecule, the GI50 (SNB-19) was > 100 µM (inactive), the GI50 (SR) was 12.6 µM (inactive) and the GI50 (UACC-62) was > 100 µM (inactive). The GI50 (SF-539) was 96.8 µM (inactive), the GI50 (IGROV-1) was > 100 µM (inactive) and the GI50 (T47D) was 66.4 µM (inactive). The GI50 (NCI-H522) was > 100 µM (inactive), the GI50 (KM12) was 65.8 µM (inactive) and the GI50 (BT-549) was > 100 µM (inactive). The GI50 (786-0) was > 100 µM (inactive), the GI50 (EKVX) was 59.2 µM (inactive) and the GI50 (NCI-H460) was 35.9 µM (inactive). The GI50 (SK-MEL-28) was > 100 µM (inactive), the GI50 (UO-31) was 70.5 µM (inactive) and the GI50 (NCI/ADR-RES) was > 100 µM (inactive). For the same molecule, the GI50 (COLO 205) was > 100 µM (inactive), the GI50 (SNB-75) was > 100 µM (inactive) and the GI50 (MOLT-4) was 15.6 µM (inactive). For the same molecule, the GI50 (HCC 2998) was 44 µM (inactive), the GI50 (RPMI-8226) was 53.2 µM (inactive) and the GI50 (K562) was 33.6 µM (inactive). For the same molecule, the GI50 (UACC-257) was > 100 µM (inactive), the GI50 (Hs-578T) was 26.2 µM (inactive) and the GI50 (MDA-N) was > 100 µM (inactive). The GI50 (MCF7) was 33.7 µM (inactive), the GI50 (DU-145) was > 100 µM (inactive) and the GI50 (NCI-H226) was > 100 µM (inactive). For the same molecule, the GI50 (SW-620) was 69.8 µM (inactive), the GI50 (ACHN) was 61.1 µM (inactive) and the GI50 (HOP-62) was > 100 µM (inactive). The GI50 (TK-10) was > 100 µM (inactive), the GI50 (NCI-H23) was 93.3 µM (inactive) and the GI50 (SN12C) was 64.9 µM (inactive). The GI50 (M14) was > 100 µM (inactive), the GI50 (U-251) was 95.1 µM (inactive) and the GI50 (SK-OV-3) was > 100 µM (inactive). The GI50 (HL-60) was 26.9 µM (inactive), the GI50 (HCT-116) was 55.6 µM (inactive) and the GI50 (SF-295) was > 100 µM (inactive). The GI50 (OVCAR-8) was > 100 µM (inactive), the GI50 (SF-268) was > 100 µM (inactive) and the GI50 (HT-29) was 31.7 µM (inactive). The GI50 (OVCAR-4) was 94.4 µM (inactive), the GI50 (MDA-MB-231) was > 100 µM (inactive) and the GI50 (RXF 393) was > 100 µM (inactive). The GI50 (PC-3) was 29.2 µM (inactive), the GI50 (SK-MEL-5) was > 100 µM (inactive) and the GI50 (OVCAR-3) was 67.6 µM (inactive). The GI50 (MDA-MB-435) was > 100 µM (inactive).

For `COC(=O)c1ccc(C)cc1CC1Cc2cc(C)ccc2C1=O` (stereo unspecified), the GI50 (A549) was > 100 µM (inactive), the GI50 (CCRF-CEM) was > 100 µM (inactive) and the GI50 (HCT-15) was > 100 µM. The GI50 (SNB-19) was > 100 µM (inactive), the GI50 (SR) was > 100 µM (inactive) and the GI50 (UACC-62) was > 100 µM (inactive). For the same molecule, the GI50 (SF-539) was > 100 µM (inactive), the GI50 (IGROV-1) was > 100 µM (inactive) and the GI50 (T47D) was > 100 µM (inactive). The GI50 (LOX IMVI) was > 100 µM (inactive), the GI50 (NCI-H522) was > 100 µM (inactive) and the GI50 (KM12) was > 100 µM (inactive). For the same molecule, the GI50 (BT-549) was 94.2 µM (inactive), the GI50 (786-0) was > 100 µM (inactive) and the GI50 (EKVX) was > 100 µM (inactive). For the same molecule, the GI50 (Malme-3M) was > 100 µM (inactive), the GI50 (NCI-H460) was > 100 µM (inactive) and the GI50 (SK-MEL-28) was > 100 µM (inactive). For the same molecule, the GI50 (UO-31) was > 100 µM (inactive), the GI50 (A498) was > 100 µM (inactive) and the GI50 (NCI/ADR-RES) was > 100 µM (inactive). The GI50 (COLO 205) was > 100 µM (inactive), the GI50 (SNB-75) was > 100 µM (inactive) and the GI50 (MOLT-4) was > 100 µM (inactive). The GI50 (OVCAR-5) was > 100 µM (inactive), the GI50 (HCC 2998) was > 100 µM (inactive) and the GI50 (CAKI-1) was > 100 µM (inactive). For the same molecule, the GI50 (RPMI-8226) was > 100 µM (inactive), the GI50 (K562) was > 100 µM (inactive) and the GI50 (UACC-257) was > 100 µM (inactive). For the same molecule, the GI50 (Hs-578T) was > 100 µM (inactive), the GI50 (MDA-N) was > 100 µM (inactive) and the GI50 (MCF7) was > 100 µM (inactive). For the same molecule, the GI50 (SK-MEL-2) was > 100 µM (inactive), the GI50 (DU-145) was > 10 µM (inactive) and the GI50 (NCI-H226) was > 100 µM (inactive). The GI50 (SW-620) was > 100 µM (inactive), the GI50 (ACHN) was > 100 µM (inactive) and the GI50 (HOP-62) was > 100 µM (inactive). For the same molecule, the GI50 (TK-10) was > 100 µM (inactive), the GI50 (NCI-H23) was > 100 µM (inactive) and the GI50 (SN12C) was > 100 µM (inactive). For the same molecule, the GI50 (M14) was > 100 µM (inactive), the GI50 (U-251) was > 100 µM (inactive) and the GI50 (SK-OV-3) was > 100 µM (inactive). For the same molecule, the GI50 (HL-60) was > 100 µM (inactive), the GI50 (HCT-116) was > 100 µM (inactive) and the GI50 (SF-295) was > 100 µM (inactive). For the same molecule, the GI50 (OVCAR-8) was > 100 µM (inactive), the GI50 (SF-268) was > 100 µM (inactive) and the GI50 (HT-29) was > 100 µM (inactive). For the same molecule, the GI50 (OVCAR-4) was > 100 µM (inactive), the GI50 (MDA-MB-231) was > 100 µM (inactive) and the GI50 (PC-3) was > 100 µM (inactive). The GI50 (OVCAR-3) was > 100 µM (inactive) and the GI50 (MDA-MB-435) was > 100 µM (inactive).
